Results as given in patent publication US11634393B2, “Substituted tolyl fungicides” (FMC CORPORATION, priority 2018, dated 2023).

Legend:
[1] = tested on: Puccinia recondita f. sp. tritici; test: Test B: wheat leaf rust, spray on wheat seedlings, disease control rating; assay type: in vivo; conditions: Rate 10 ppm, 100 = 100% disease control, 0 = no disease control relative to the controls; for pest or weed control at 10 ppm: Puccinia recondita, 192 h
Excerpt: (§1) General protocol for preparing test suspensions for Tests A-F: the test compounds were first dissolved in acetone in an amount equal to 3% of the final volume and then suspended at the desired concentration (in ppm) in acetone and purified water (50/50 mix by volume) containing 250 ppm of the surfactant PEG400 (polyhydric alcohol esters). The resulting test suspensions were then used in Tests A-F.
The test solution was sprayed to the point of run-off on wheat seedlings. The following day the seedlings were inoculated with a spore suspension of Puccinia recondita f. sp. tritici (the causal agent of wheat leaf rust) and incubated in a saturated atmosphere at 20° C. for 24 h, and then moved to a growth chamber at 20° C. for 7 days, after which time disease ratings were made.
(§2) A rating of 100 indicates 100% disease control and a rating of 0 indicates no disease control (relative to the controls). A dash (-) indicates the compound was not tested.

Phakopsora pachyrhizi = test: Test D: Asian soybean rust, spray on soybean seedlings, disease control rating; assay type: in vivo; conditions: Rate 10 ppm, 100 = 100% disease control, 0 = no disease control relative to the controls; for pest or weed control at 10 ppm: Phakopsora pachyrhizi, 216 h
Excerpt: as §1
The test solution was sprayed to the point of run-off on soybean seedlings. The following day the seedlings were inoculated with a spore suspension of Phakopsora pachyrhizi (the causal agent of Asian soybean rust) and incubated in a saturated atmosphere at 22° C. for 24 h and then moved to a growth chamber at 22° C. for 8 days, after which time visual disease ratings were made.
as §2

| SMILES | Test B disease control rating [1] | Test D disease control rating (Phakopsora pachyrhizi) | pest or weed control at 10 ppm [1] | pest or weed control at 10 ppm (Phakopsora pachyrhizi) |
| --- | --- | --- | --- | --- |
| COC(=O)NCc1cc(-c2ccn(-c3c(F)cc(OC4CC(F)(F)C4)cc3F)n2)ccc1C [Compound 98] | 99% | 100% |  |  |
| COC(=O)NCc1cc(-c2ccn(-c3c(C)cc(Br)cc3C)n2)ccc1C [Compound 48] |  |  | 68% | 99% |
| COC(=O)NCc1cc(-c2ccn(-c3c(F)cc(F)cc3SC)n2)ccc1C [Compound 19] |  |  | 0% | 81% |
| COC(=O)NCc1cc(-c2ccn(-c3c(F)cc(OC(F)(F)F)cc3F)n2)ccc1C [Compound 78, methyl N-[[5-[1-[2,6-difluoro-4-(trifluoromethoxy)phenyl]-1H-pyrazol-3-yl]-2-methylphenyl]methyl]carbamate] |  |  | 100% | 100% |
| COC(=O)NCc1cc(-c2ccn(-c3c(F)cc(C(=O)OC)cc3F)n2)ccc1C [Compound 70, methyl 3,5-difluoro-4-[3-[3-[[(methoxycarbonyl)amino]methyl]-4-methylphenyl]-1H-pyrazol-1-yl]benzoate] |  |  | 74% | 81% |
| COC(=O)NCc1cc(-c2cnn(-c3c(F)cc(Cl)cc3F)n2)ccc1C [Compound 117, methyl N-[[5-[2-(4-chloro-2,6-difluorophenyl)-2H-1,2,3-triazol-4-yl]-2-methylphenyl]methyl]carbamate] |  |  | 100% | 100% |
| COC(=O)NCc1cc(-c2ccn(-c3c(F)cc(I)cc3SC)n2)ccc1C [Compound 26] |  |  | 73% | 87% |
| C=CCON=C(C)c1cc(F)c(-n2ccc(-c3ccc(C)c(CNC(=O)OC)c3)n2)c(F)c1 [Compound 85] | 90% | 98% |  |  |
| COC(=O)NCc1cc(-c2ccn(-c3c(F)cc(C(C)(C)O)cc3F)n2)ccc1C [Compound 95] | 0% | 53% |  |  |
| COC(=O)NCc1cc(-c2ccn(-c3c(F)cc(C(C)=NOC(C)C)cc3F)n2)ccc1C [Compound 86] | 99% | 100% |  |  |
| CON=C(C)c1cc(F)c(-n2ccc(-c3ccc(C)c(CNC(=O)OC)c3)n2)c(F)c1 [Compound 99] | 100% | 100% |  |  |
| C=CCOc1cc(F)c(-n2ccc(-c3ccc(C)c(CNC(=O)OC)c3)n2)c(F)c1 [Compound 94] | 85% | 99% |  |  |
| COC(=O)NCc1cc(-c2ccn(-c3c(Br)cccc3I)n2)ccc1C [Compound 52] |  |  | 0% | 99% |
| COC(=O)NCc1cc(-c2ccn(-c3c(F)cc(C(C)O)cc3F)n2)ccc1C (stereo not shown) [Compound 96] | 68% | 79% |  |  |
| CCON=C(C)c1cc(F)c(-n2ccc(-c3ccc(C)c(CNC(=O)OC)c3)n2)c(F)c1 [Compound 84] | 100% | 100% |  |  |
| COC(=O)NCc1cc(-c2ccn(-c3c(F)cc(CC(C)=O)cc3F)n2)ccc1C [Compound 75] | 0% | 87% |  |  |
| COC(=O)NCc1cc(-c2ccn(-c3c(Cl)cc(C(F)(C(F)(F)F)C(F)(F)F)cc3Cl)n2)ccc1C [Compound 138] | 74% | 87% |  |  |
| COC(=O)NCc1cc(-c2ccn(-c3c(F)cc(OCC4CCC4)cc3F)n2)ccc1C [Compound 31] | 91% | 0% |  |  |

| SMILES | Test B disease control rating [1] | Test D disease control rating (Phakopsora pachyrhizi) | pest or weed control at 10 ppm [1] | pest or weed control at 10 ppm (Phakopsora pachyrhizi) |
| --- | --- | --- | --- | --- |
| COC(=O)NCc1cc(-c2ccn(-c3c(Cl)cc([N+](=O)[O-])cc3Cl)n2)ccc1C [Compound 54] |  |  | 0% | 0% |
| COC(=O)NCc1cc(-c2ccn(-c3c(F)cc(C4CC4(Cl)Cl)cc3F)n2)ccc1C (stereo not shown) [Compound 88] | 100% | 100% |  |  |
| COC(=O)NCc1cc(-c2ccn(-c3c(F)cc(OCC4COC4)cc3F)n2)ccc1C [Compound 32] | 0% | 77% |  |  |
| COC(=O)NCc1cc(-c2ccn(-c3c(F)cc(C4CC4)cc3F)n2)ccc1C [Compound 41, methyl N-[[5-[1-(4-cyclopropyl-2,6-difluorophenyl)-1H-pyrazol-3-yl]-2-methylphenyl]methyl]carbamate] |  |  | 100% | 100% |
| COC(=O)NCc1cc(-c2ccn(-c3c(F)cc(N)cc3F)n2)ccc1C [Compound 5, methyl N-[[5-[1-(4-amino-2,6-difluorophenyl)-1H-pyrazol-3-yl]-2-methylphenyl]methyl]carbamate] |  |  | 0% | 0% |
| COC(=O)NCc1cc(-c2ccn(-c3c(F)cc(C4OCCO4)cc3F)n2)ccc1C [Compound 133] |  |  | 99% | 100% |
| COC(=O)NCc1cc(-c2ccn(-c3c(F)cc(OCC(F)(F)F)cc3F)n2)ccc1C [Compound 22] |  |  | 99% | 100% |
| COC(=O)NCc1cc(-c2ccn(-c3c(F)cc(O)cc3F)n2)ccc1C [Compound 10, methyl N-[[5-[1-(2,6-difluoro-4-hydroxyphenyl)-1H-pyrazol-3-yl]-2-methylphenyl]methyl]carbamate] |  |  | 0% | 0% |
| COC(=O)NCc1cc(-c2ccn(-c3c(Cl)cc(N)cc3Cl)n2)ccc1C [Compound 55] |  |  | 0% | 0% |
| COC(=O)NCc1cc(-c2ccn(-c3c(F)cc(I)cc3F)n2)ccc1C [Compound 8, methyl N-[[5-[1-(2,6-difluoro-4-iodophenyl)-1H-pyrazol-3-yl]-2-methylphenyl]methyl]carbamate] |  |  | 100% | 100% |
| COC(=O)NCc1cc(-c2ccn(-c3c(Cl)cc(C4CC4)cc3Cl)n2)ccc1C [Compound 65, methyl N-[[5-[1-(2,6-dichloro-4-cyclopropylphenyl)-1H-pyrazol-3-yl]-2-methylphenyl]methyl]carbamate] |  |  | 97% | 100% |
| COC(=O)NCc1cc(-c2ccn(-c3c(SC)cc(F)cc3SC)n2)ccc1C [Compound 20] |  |  | 0% | 0% |
| COC(=O)NCc1cc(-c2ccn(-c3c(Cl)cc(Br)cc3Cl)n2)ccc1C [Compound 56] |  |  | 80% | 100% |
| COC(=O)NCc1cc(-c2ccn(-c3c(Cl)cc(C(C)C)cc3Cl)n2)ccc1C [Compound 135] |  |  | 86% | 100% |
| COC(=O)NCc1cc(-c2ccn(-c3c(F)cc(C=NOC(C)C)cc3F)n2)ccc1C [Compound 82] | 95% | 100% |  |  |
| CON=Cc1cc(F)c(-n2ccc(-c3ccc(C)c(CNC(=O)OC)c3)n2)c(F)c1 [Compound 79] | 100% | 100% |  |  |
| CCON=C(C)c1cc(F)c(-n2ncc(-c3ccc(C)c(CNC(=O)OC)c3)n2)c(F)c1 [Compound 142] | 86% | 100% |  |  |
